Assay results as given in ChEMBL document CHEMBL4828738, “Design, synthesis and evaluation of novel 5-phenylthiophene derivatives as potent fungicidal of Candida albicans and antifungal reagents of fluconazole-resistant fungi” (Eur J Med Chem, 2021).
Converted amounts (≈) assume the structure as drawn.

What was measured:
Pichia kudriavzevii = experiment: Antifungal activity against Candida krusei GIM2.1 assessed as fungal growth inhibition by CLSI protocol based method; type: functional
Cryptococcus neoformans = experiment: Antifungal activity against Cryptococcus neoformans CGMCC2.3161 assessed as fungal growth inhibition by CLSI protocol based method; type: functional
Candida albicans [1] = experiment: Antifungal activity against Candida albicans ATCC SC5314 assessed as fungal growth inhibition by CLSI protocol based method; type: functional
Candida albicans [2] = experiment: Antifungal activity against Candida albicans CPCC400616 assessed as fungal growth inhibition by CLSI protocol based method; type: functional
Candida tropicalis = experiment: Antifungal activity against Candida tropicalis CGMCC 2.3739 assessed as fungal growth inhibition by CLSI protocol based method; type: functional
Candida parapsilosis = experiment: Antifungal activity against Candida parapsilosis GIM2.190 assessed as fungal growth inhibition by CLSI protocol based method; type: functional; details: Lodderomyces parapsilosis
Nakaseomyces glabratus = experiment: Antifungal activity against Candida glabrata assessed as fungal growth inhibition by CLSI protocol based method; type: functional
Candida albicans [3] = experiment: Antifungal activity against fluconazole-resistant Candida albicans 904 assessed as fungal growth inhibition by CLSI protocol based method
Candida albicans [4] = experiment: Antifungal activity against fluconazole-resistant Candida albicans 103 assessed as fungal growth inhibition by CLSI protocol based method
Candida albicans [5] = experiment: Antifungal activity against fluconazole-resistant Candida albicans 632 assessed as fungal growth inhibition by CLSI protocol based method
Candida albicans [6] = experiment: Antifungal activity against fluconazole-resistant Candida albicans 311 assessed as fungal growth inhibition by CLSI protocol based method
Candida albicans [7] = experiment: Antifungal activity against fluconazole-resistant Candida albicans 100 assessed as fungal growth inhibition by CLSI protocol based method
Candida albicans [8] = experiment: Antifungal activity against fluconazole-resistant Candida albicans 901 assessed as fungal growth inhibition by CLSI protocol based method

| SMILES | MIC (Pichia kudriavzevii) | MIC (Cryptococcus neoformans) | MIC (Candida albicans [1]) | MIC (Candida albicans [2]) | MIC (Candida tropicalis) | MIC (Candida parapsilosis) | MIC (Nakaseomyces glabratus) | MIC (Candida albicans [3]) | MIC (Candida albicans [4]) | MIC (Candida albicans [5]) | MIC (Candida albicans [6]) | MIC (Candida albicans [7]) | MIC (Candida albicans [8]) |
| --- | --- | --- | --- | --- | --- | --- | --- | --- | --- | --- | --- | --- | --- |
| O=C(NC(Cn1ccnc1)C(=O)c1ccccc1)c1ccc(-c2ccccc2Cl)s1 (stereo not given) | > 64 µg/mL | > 64 µg/mL | > 64 µg/mL | > 64 µg/mL | > 64 µg/mL | > 64 µg/mL | > 64 µg/mL | – | – | – | – | – | – |
| CCOc1ccc(-c2ccc(C(=O)NC(Cn3ccnc3)C(=O)c3ccccc3)s2)cc1 (stereo not given) | > 64 µg/mL | > 64 µg/mL | > 64 µg/mL | > 64 µg/mL | > 64 µg/mL | > 64 µg/mL | > 64 µg/mL | – | – | – | – | – | – |
| O=C(NC(Cn1ccnc1)C(=O)c1ccc(OC(F)(F)F)cc1)c1ccc(-c2ccc(Cl)cc2)s1 (stereo not given) | > 64 µg/mL | > 64 µg/mL | 32 µg/mL (≈ 61.5 µM) | 32 µg/mL (≈ 61.5 µM) | > 64 µg/mL | > 64 µg/mL | > 64 µg/mL | – | – | – | – | – | – |
| O=C(NC(Cn1ccnc1)C(=O)c1ccccc1)c1cnc(-c2ccccc2)o1 (stereo not given) | > 64 µg/mL | > 64 µg/mL | 32 µg/mL (≈ 82.8 µM) | 64 µg/mL (≈ 166 µM) | > 64 µg/mL | > 64 µg/mL | > 64 µg/mL | – | – | – | – | – | – |
| O=C(NC(Cn1ccnc1)C(=O)c1ccccc1)c1ccc(-c2ccccc2)o1 (stereo not given) | > 64 µg/mL | > 64 µg/mL | 16 µg/mL (≈ 41.5 µM) | 16 µg/mL (≈ 41.5 µM) | > 64 µg/mL | > 64 µg/mL | > 64 µg/mL | – | – | – | – | – | – |
| O=C(NC(Cn1ccnc1)C(=O)c1cccc(Cl)c1)c1ccc(-c2ccc(Cl)cc2)s1 (stereo not given) | > 64 µg/mL | > 64 µg/mL | < 0.03 µg/mL | 0.25 µg/mL (≈ 0.531 µM) | 1 µg/mL (≈ 2.13 µM) | 0.5 µg/mL (≈ 1.06 µM) | 0.5 µg/mL (≈ 1.06 µM) | > 64 µg/mL | 4 µg/mL (≈ 8.5 µM) | > 64 µg/mL | 4 µg/mL (≈ 8.5 µM) | 2 µg/mL (≈ 4.25 µM) | 8 µg/mL (≈ 17 µM) |
| O=C(NC(Cn1ccnc1)C(=O)c1ccccc1)c1ccc(-c2cccc(Cl)c2)s1 (stereo not given) | > 64 µg/mL | > 64 µg/mL | 16 µg/mL (≈ 36.7 µM) | 32 µg/mL (≈ 73.4 µM) | 32 µg/mL (≈ 73.4 µM) | > 64 µg/mL | > 64 µg/mL | – | – | – | – | – | – |
| N#Cc1ccc(-c2ccc(C(=O)NC(Cn3ccnc3)C(=O)c3ccccc3)s2)cc1 (stereo not given) | > 64 µg/mL | > 64 µg/mL | > 64 µg/mL | > 64 µg/mL | > 64 µg/mL | > 64 µg/mL | > 64 µg/mL | – | – | – | – | – | – |
| O=C(NC(Cn1ccnc1)C(=O)c1ccccc1)c1ccc2ccccc2c1 (stereo not given) | > 64 µg/mL | 32 µg/mL (≈ 86.6 µM) | 0.5 µg/mL (≈ 1.35 µM) | 2 µg/mL (≈ 5.41 µM) | 0.5 µg/mL (≈ 1.35 µM) | > 64 µg/mL | > 64 µg/mL | – | – | – | – | – | – |
| COc1ccc(C(=O)C(Cn2ccnc2)NC(=O)c2ccc(-c3ccc(Cl)cc3)s2)cc1 (stereo not given) | 8 µg/mL (≈ 17.2 µM) | > 64 µg/mL | < 0.03 µg/mL | 0.125 µg/mL (≈ 0.268 µM) | 0.06 µg/mL (≈ 0.129 µM) | > 64 µg/mL | 4 µg/mL (≈ 8.58 µM) | 16 µg/mL (≈ 34.3 µM) | 8 µg/mL (≈ 17.2 µM) | 8 µg/mL (≈ 17.2 µM) | 4 µg/mL (≈ 8.58 µM) | 4 µg/mL (≈ 8.58 µM) | 8 µg/mL (≈ 17.2 µM) |
| O=C(NC(Cn1ccnc1)C(=O)c1ccccc1)c1ccc(-c2cccc(F)c2)s1 (stereo not given) | > 64 µg/mL | > 64 µg/mL | 8 µg/mL (≈ 19.1 µM) | 64 µg/mL (≈ 153 µM) | > 64 µg/mL | > 64 µg/mL | > 64 µg/mL | – | – | – | – | – | – |
| O=C(NC(Cn1ccnc1)C(=O)c1ccccc1)c1ccc(-c2ccsc2)cc1 (stereo not given) | 16 µg/mL (≈ 39.9 µM) | 8 µg/mL (≈ 19.9 µM) | 1 µg/mL (≈ 2.49 µM) | 2 µg/mL (≈ 4.98 µM) | 2 µg/mL (≈ 4.98 µM) | > 64 µg/mL | > 64 µg/mL | – | – | – | – | – | – |
| O=C(NC(Cn1ccnc1)C(=O)c1ccccc1)c1ccc(-c2ccc(F)cc2F)s1 (stereo not given) | > 64 µg/mL | > 64 µg/mL | 8 µg/mL (≈ 18.3 µM) | > 64 µg/mL | > 64 µg/mL | > 64 µg/mL | > 64 µg/mL | – | – | – | – | – | – |
| O=C(NC(Cn1ccnc1)C(=O)c1ccccc1)c1cc2ccccc2s1 (stereo not given) | > 64 µg/mL | > 64 µg/mL | > 64 µg/mL | > 64 µg/mL | > 64 µg/mL | > 64 µg/mL | > 64 µg/mL | – | – | – | – | – | – |
